Data as given in patent US20240376504A1, “ENZYMATIC SYNTHESIS OF MYCOSPORINE-LIKE AMINO ACIDS” (University of Florida Research Foundation, Incorporated, priority 2021, published 2024).

How the values were obtained:
[1] = tested on: recombinant His6-tagged MysD; test: MysD reaction, relative activity of amino acid substrates (MG consumption by HPLC); format: biochemical, Nostoc linkia NIES-25; conditions: 0.25 μM MysD; L-Thr reaction (8 min) set as 100%; from concentrations of disubstituted MAAs produced
Procedure: The current and previous heterologous expression studies supported the function of MysD in the biosynthesis of disubstituted MAAs (FIG. 3).^29,35 To further characterize its catalytic properties, recombinant His6-tagged MysD of N. linkia NIES-25 was prepared from E. coli after a single affinity purification (FIG. 21). The enzyme reaction was performed with MysD (0.5 μM), MG (50 μM), and L-Thr (1 mM) in the presence of ATP (1 mM) and Mg^2+ (10 mM) at room temperature for 2 h. […] No product was formed in the control reactions without enzyme or ATP (FIG. 5A). The requirement of ATP for the MysD reaction supports its prediction as the D-Ala-D-Ala ligase-like enzyme of the ATP grasp superfamily.^29 The optimal temperature and pH of its reaction were determined at 37° C. and pH=8.5 (FIG. 22). Under these optimal reaction conditions, all 20 natural amino acids were screened (5 mM) along with MG (50 μM) in the MysD reaction. […] LC-HRMS and MS/MS analysis indicated the formation of their corresponding disubstituted MAAs, MG-Ala, MG-Arg (observed [M+H]^+: 402.1977; calculated [M+H]^+: 402.1983), MG-Cys (observed [M+H]^+: 349.1059; calculated [M+H]^+: 349.1064), mycosporine-2-Gly (observed [M+H]^+: 303.1182; calculated [M+H]^+: 303.1187), shinorine, and porphyra-334 (FIGS. 24, 25, and 26). L-Ser and L-Thr led to the complete consumption of MG in the MysD reactions after 3 h, followed by L-Cys. […] Nonetheless, the result of this biochemical study well agreed with the production of porphyra-334 along with small amounts of shinorine and MG-Ala in the above heterologous expression study (FIG. 3C). To further understand MysD's substrate preference, the enzyme concentration was lowered to 0.25 μM. […] The consumed MG level in this reaction was set as 100% to normalize its level in the five other reactions, which was determined from the concentrations of produced disubstituted MAAs in the reactions (FIG. 5C). […] Together, the results of these biochemical studies highlight the broad substrate scope of MysD and its strong preference toward L-Thr in the MAA biosynthesis.
MysD Reaction. […] The quality of MG was calculated based on its reported extinction coefficient (28,100 M^−1 cm^−1). […] The reactions were terminated and then analyzed in the HPLC and/or LC-MS analysis. […] First, the reactions were performed with 0.25 μM MysD for 8 min, which led to no more than 50% consumption of MG into porphyra-334 with the best substrate L-Thr and into shinorine with L-Ser. For the other four amino acids, the levels of their corresponding disubstituted MAAs were determined after the reaction time was elongated to 30 min. […]
HPLC and LC-MS Analysis. Samples were analyzed on a Shimadzu Prominence UHPLC system (Kyoto, Japan) coupled with a PDA detector. […]

[2] = reported value used to calculate MG; cited from earlier work

Row | Compound | consumption level of MG in the MysD reaction relative to that with L-Thr [1] | extinction coefficient [2]
1 | C[C@H](N)C(=O)O [L-Ala] | 0.4% | 
2 | N[C@@H](CS)C(=O)O [L-Cys] | 0.9% | 
3 | N[C@@H](CO)C(=O)O [L-Ser] | about 12.7% | 
4 | C[C@@H](O)[C@H](N)C(=O)O [L-Thr] | 100% | 
5 | COC1=C(NCC(=O)O)C[C@@](O)(CO)CC1=O [MG, mycosporine-glycine] |  | 28,100 M^−1 cm^−1
